Assays:
RMS3/PsD14 = biological target: T1, RMS3/PsD14 (Lathyrus oleraceus, UniProt A0A109QYD3); test: intrinsic tryptophan fluorescence titration (also nanoDSF and UPLC hydrolysis assay); type: binding
T1 sequence (A0A109QYD3 1-267): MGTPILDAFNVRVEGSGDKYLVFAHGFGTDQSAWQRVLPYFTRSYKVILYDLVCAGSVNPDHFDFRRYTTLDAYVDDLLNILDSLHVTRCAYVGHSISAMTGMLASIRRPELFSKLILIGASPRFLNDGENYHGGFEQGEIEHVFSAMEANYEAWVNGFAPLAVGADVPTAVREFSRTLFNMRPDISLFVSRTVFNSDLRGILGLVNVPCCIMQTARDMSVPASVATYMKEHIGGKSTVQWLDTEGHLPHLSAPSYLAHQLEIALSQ

CpD14 = test: intrinsic tryptophan fluorescence titration; UPLC hydrolysis assay; denaturing ESI-MS covalent adduct; type: binding, Cryphonectria parasitica
Description: intrinsic tryptophan fluorescence titration; UPLC hydrolysis assay; denaturing ESI-MS covalent adduct on CpD14 | The interaction between (+)‐GR24 and CpD14 was confirmed using tryptophan intrinsic fluorescence assay

With `CC1=C[C@H](O/C=C2/C(=O)O[C@@H]3c4ccccc4C[C@H]23)OC1=O` [(+)-GR24] the Kd (RMS3/PsD14) was 9.33 ± 4.27 µM and the Kd (CpD14) was 203 ± 41.1 µM.

— publication PMC9306968, “A structural homologue of the plant receptor D14 mediates responses to strigolactones in the fungal phytopathogen Cryphonectria parasitica” (The New Phytologist, 2022)
